How the values were obtained:
Blood cells = experiment: Labeled sugar incorporation, fluorescence microscopy image analysis (false-positive/negative rate); type: cell-based, human
Source text: Blood was collected from a human subject using a vacuum blood collection tube (with EDTA•2K). Blood cells were separated using HetaSep (STEMCELL Technologies) in accordance with manufacturer's instructions.
When performing the hemolyzing treatment, the blood cell fraction collected as described above was hemolyzed using ammonium chloride (STEMCELL Technologies) according to the manufacture's manuals.
The number of the cells was counted for each cell line using a hemacytometer in accordance with the conventional method, and then 10^5 to 10^6 cells per sample (cell suspension) was aliquoted. Each of the sample was centrifuged to remove the supernatant. Subsequently, 2-NBDG (Wako Pure Chemical Industries, Ltd.; at the final concentration given in Table 3 or 4) dissolved in Dulbecco's PBS (−) was added thereto, and the cells were suspended well. After the reaction, Dulbecco's PBS (−) was added to the mixture, and the resultant was centrifuged to remove the supernatant. The cells were resuspended with Dulbecco's PBS (−) and centrifuged, and the supernatant was removed again. The steps of resuspending cells with Dulbecco's PBS (−), centrifuging and removing the supernatant were then repeated 2 to 3 times, thereby washing the cells thoroughly. The cells were resuspended with Dulbecco's PBS (−), the concentration thereof was adjusted, and then added dropwise to a 384-well plate. The plate was centrifuged to spin down the cells. The image was captured with a fluorescence microscope (Nikon Corp.) using B-2A filter combination (Nikon Corp.). The B-2A set covers the following wavelengths. EX (excitation wavelength): 475±15 nm, DM: 505 nm or longer, BA (fluorescence wavelength) 520 nm or longer.
The acquired images were analyzed using an image analysis software NIS-ELEMENTS (trade name, Nikon Corp.) to evaluate the fluorescence intensity of the cell. […]

[1] = test system: human breast adenocarcinoma cells (MCF-7); experiment: Fluorescence values of cell suspension reacted with aminolevulinic acid (i-densy); type: cell-based; settings: 1 mM, 37° C.
Source text: In accordance with the conventional method, human breast adenocarcinoma cells (cell line name: MCF-7; DS Pharma Biomedical Co., Ltd.) in culture was harvested with trypsin (Invitrogen). The cancer cell suspension harvested was centrifuged, and the supernatant was removed. The cells were resuspended with Dulbecco's PBS (+) (Nissui Pharmaceutical Co., Ltd.) and centrifuged, and the supernatant was removed again.
The number of the cells was counted using a hemacytometer in accordance with the conventional method, and then 2.8×10^5 cells per sample was aliquoted. […]
The fluorescence values of the cell suspension were measured using an i-densy (ARKRAY, Inc) at 15 minutes, 30 minutes, 60 minutes and 90 minutes after the start of the reaction. Conditions for fluorescence value measurement are as follows: 40° C. in the temperature regulated and light-intensity mode, Gain “3”, LED1 (390±20 nm for excitation)—PD3 (642.5±57.5 nm for detection).
In FIG. 7, the vertical axis represents fluorescence values, and the horizontal axis represents the reaction time. The solid squares represent fluorescence values obtained from the sample using Dulbecco's PBS (−) containing no Mg and Ca ions. The solid triangles represent fluorescence values obtained from the sample using Dulbecco's PBS (+) containing Mg and Ca ions. […]

[2] = fresh blood, Mean luminance, hemolyzed, 10 mM, 5 min, 23° C.
[3] = fresh blood, Total luminance, hemolyzed, 10 mM, 5 min, 23° C.
[4] = hemolyzed, 10 mM, 5 min, 23° C.
[5] = hemolyzed, 10 mM, 5 min, 23° C., threshold value 280 (Colon adenocarcinoma)
[6] = hemolyzed, 10 mM, 5 min, 23° C., threshold value 330 (Breast adenocarcinoma)
[7] = hemolyzed, 10 mM, 5 min, 23° C., threshold value 370 (Alveolar epithelial cancer)
[8] = hemolyzed, 10 mM, 5 min, 23° C., threshold value 370 (Fibrosarcoma)
[9] = hemolyzed, 10 mM, 5 min, 23° C., threshold value 490 (Gastric cancer)
[10] = hemolyzed, 10 mM, 5 min, 23° C., threshold value 880 (Prostate cancer)
[11] = hemolyzed, 0.1 mM, 37° C., 30 min, threshold value 380
[12] = hemolyzed, 1 mM, 37° C., 30 min, threshold value 520
[13] = hemolyzed, 10 mM, 37° C., 30 min, threshold value 1150
[14] = hemolyzed, 4° C., 10 mM, 5 min, threshold value 640
[15] = hemolyzed, 23° C., 10 mM, 5 min, threshold value 640
[16] = hemolyzed, 37° C., 10 mM, 5 min, threshold value 750
[17] = hemolyzed, 5 min, 10 mM, 37° C., threshold value 570
[18] = hemolyzed, 30 min, 10 mM, 37° C., threshold value 880
[19] = hemolyzed, 60 min, 10 mM, 37° C., threshold value 750
[20] = not hemolyzed, 10 mM, 5 min, 23° C.
[21] = single, Glucose conc.: 1 mM, Temp.: 37° C., Time: 30 min, threshold value 280 (Colon adenocarcinoma)
[22] = single, Glucose conc.: 1 mM, Temp.: 37° C., Time: 30 min, threshold value 370 (Fibrosarcoma)
[23] = single, Glucose conc.: 1 mM, Temp.: 37° C., Time: 30 min, threshold value 490 (Gastric cancer)
[24] = without hemolyzing treatment, 0.1 mM, 37° C., 30 min, threshold value 280
[25] = without hemolyzing treatment, 1 mM, 37° C., 30 min, threshold value 330
[26] = without hemolyzing treatment, 10 mM, 37° C., 30 min, threshold value 450 (concentration series)
[27] = without hemolyzing treatment, 4° C., 10 mM, 5 min, threshold value 310
[28] = without hemolyzing treatment, 23° C., 10 mM, 5 min, threshold value 360
[29] = without hemolyzing treatment, 37° C., 10 mM, 5 min, threshold value 390
[30] = without hemolyzing treatment, 5 min, 10 mM, 37° C., threshold value 380
[31] = without hemolyzing treatment, 30 min, 10 mM, 37° C., threshold value 450 (time series)
[32] = without hemolyzing treatment, 60 min, 10 mM, 37° C., threshold value 500

In the case of O=[N+]([O-])c1ccc(N[C@H]2C(O)O[C@H](CO)[C@@H](O)[C@@H]2O)c2nonc12 (stereo partly drawn) [2-NBDG, 2-[N-(7-nitrobenz-2-oxa-1,3-diazol-4-yl)amino]-2-deoxy-D-glucose], the “Negative rate (Blood cells)” value (Blood cells; [2]) is reported as 95.2%, the “Positive rate of cancer cells (Blood cell data)” value (Blood cells; [2]) is reported as 4.8% and the “Negative rate (Blood cells)” value (Blood cells; [3]) is reported as 91.0%. For the same compound, the “Positive rate of cancer cells (Blood cell data)” value (Blood cells; [3]) was 9.0%, the “Negative rate (Blood cells (fresh blood))” value (Blood cells; [4]) was 95.2% and the “Positive rate (Blood cells (fresh blood))” value (Blood cells; [4]) was 4.8%. The “Negative rate (Blood cells (fresh blood))” value (Blood cells; [5]) was 96.6%, the “Positive rate (Blood cells (fresh blood))” value (Blood cells; [5]) was 3.4% and the “Negative rate (Blood cells (fresh blood))” value (Blood cells; [6]) was 94.2%. For the same compound, the “Positive rate (Blood cells (fresh blood))” value (Blood cells; [6]) was 5.8%, the “Negative rate (Blood cells (fresh blood))” value (Blood cells; [7]) was 98.3% and the “Positive rate (Blood cells (fresh blood))” value (Blood cells; [7]) was 1.7%. The “Negative rate (Blood cells (fresh blood))” value (Blood cells; [8]) was 95.2%, the “Positive rate (Blood cells (fresh blood))” value (Blood cells; [8]) was 4.8% and the “Negative rate (Blood cells (fresh blood))” value (Blood cells; [9]) was 100.0%. The “Positive rate (Blood cells (fresh blood))” value (Blood cells; [9]) was 0.0%, the “Negative rate (Blood cells (fresh blood))” value (Blood cells; [10]) was 100.0% and the “Positive rate (Blood cells (fresh blood))” value (Blood cells; [10]) was 0.0%. The “Negative rate (Blood cells)” value (Blood cells; [11]) was 100.0%, the “Positive rate (Blood cells)” value (Blood cells; [11]) was 0.0% and the “Negative rate (Blood cells)” value (Blood cells; [12]) was 98.9%. For the same compound, the “Positive rate (Blood cells)” value (Blood cells; [12]) was 1.1%, the “Negative rate (Blood cells)” value (Blood cells; [13]) was 100.0% and the “Positive rate (Blood cells)” value (Blood cells; [13]) was 0.0%. The “Negative rate (Blood cells)” value (Blood cells; [14]) was 100.0%, the “Positive rate (Blood cells)” value (Blood cells; [14]) was 0.0% and the “Negative rate (Blood cells)” value (Blood cells; [15]) was 99.2%. For the same compound, the “Positive rate (Blood cells)” value (Blood cells; [15]) was 0.8%, the “Negative rate (Blood cells)” value (Blood cells; [16]) was 98.5% and the “Positive rate (Blood cells)” value (Blood cells; [16]) was 1.5%. For the same compound, the “Negative rate (Blood cells)” value (Blood cells; [17]) was 99.1%, the “Positive rate (Blood cells)” value (Blood cells; [17]) was 0.9% and the “Negative rate (Blood cells)” value (Blood cells; [18]) was 99.7%. For the same compound, the “Positive rate (Blood cells)” value (Blood cells; [18]) was 0.3%, the “Negative rate (Blood cells)” value (Blood cells; [19]) was 97.1% and the “Positive rate (Blood cells)” value (Blood cells; [19]) was 2.9%. For the same compound, the “Negative rate (Blood cells (fresh blood))” value (Blood cells; [20]) was 97.9%, the “Positive rate (Blood cells (fresh blood))” value (Blood cells; [20]) was 2.1% and the “Negative rate (Blood cells (fresh blood))” value (Blood cells; [21]) was 96.6%. For the same compound, the “Positive rate (Blood cells (fresh blood))” value (Blood cells; [21]) was 3.4%, the “Negative rate (Blood cells (fresh blood))” value (Blood cells; [22]) was 95.2% and the “Positive rate (Blood cells (fresh blood))” value (Blood cells; [22]) was 4.8%. For the same compound, the “Negative rate (Blood cells (fresh blood))” value (Blood cells; [23]) was 100.0%, the “Positive rate (Blood cells (fresh blood))” value (Blood cells; [23]) was 0.0% and the “Negative rate (Blood cells)” value (Blood cells; [24]) was 100.0%. For the same compound, the “Positive rate (Blood cells)” value (Blood cells; [24]) was 0.0%, the “Negative rate (Blood cells)” value (Blood cells; [25]) was 98.5% and the “Positive rate (Blood cells)” value (Blood cells; [25]) was 1.5%. For the same compound, the “Negative rate (Blood cells)” value (Blood cells; [26]) was 98.9%, the “Positive rate (Blood cells)” value (Blood cells; [26]) was 1.1% and the “Negative rate (Blood cells)” value (Blood cells; [27]) was 99.1%. For the same compound, the “Positive rate (Blood cells)” value (Blood cells; [27]) was 0.9%, the “Negative rate (Blood cells)” value (Blood cells; [28]) was 97.9% and the “Positive rate (Blood cells)” value (Blood cells; [28]) was 2.1%. The “Negative rate (Blood cells)” value (Blood cells; [29]) was 99.0%, the “Positive rate (Blood cells)” value (Blood cells; [29]) was 1.0% and the “Negative rate (Blood cells)” value (Blood cells; [30]) was 98.6%. The “Positive rate (Blood cells)” value (Blood cells; [30]) was 1.4%, the “Negative rate (Blood cells)” value (Blood cells; [31]) was 98.9% and the “Positive rate (Blood cells)” value (Blood cells; [31]) was 1.1%. For the same compound, the “Negative rate (Blood cells)” value (Blood cells; [32]) was 91.2% and the “Positive rate (Blood cells)” value (Blood cells; [32]) was 8.8%.
For NCC(=O)CCC(=O)O [aminolevulinic acid, 5-amino-4-oxopentanoic acid], the “reactivity of aminolevulinic acid (fluorescence values of the cell suspension)” value ([1]; 15 to 90 minutes, Dulbecco's PBS (+) containing Mg and Ca ions versus PBS (−), FIG. 7) was “can be improved” and the “reactivity of aminolevulinic acid (fluorescence values of the cell suspension)” value ([1]; Dulbecco's PBS (+) with Mg and Ca ions plus 10 μM ENDO-PORTER, FIG. 8) was “further improves the reactivity”.

From patent US9645154B2, “Method for detecting cancer cell” (ARKRAY, Inc., priority 2010, dated 2017)
